The subject of the test is human embryonic stem cells-derived definitive endoderm. In words: Hepatic differentiation (AFP / albumin expression) of hES cell-derived definitive endoderm. It is filed as cell-based. Here is the method: Cells were split in 4-well plates and differentiation performed in five stages as previously published (D'Amour et al. 2006 (supra); Table 2). Briefly, for DE induction 80% confluent cultures were washed with PBS and treated with 100 ng/ml Activin-A (RnD Systems) and 25 ng/ml Wnt3a (RnD Systems) for 24h in RPMI (Invitrogen) supplemented with antibiotics and Glutamax; then they were further treated with 100 ng/ml Activin-A in RPMI containing 0.2% FBS (PAA Laboratories) for 48h. PGT stage cells were treated with 50 ng/ml FGF10 (RnD Systems), 250 nM KAAD-Cyclopamine (Calbiochem) and 2% FBS in RPMI medium for 3 or 4 days. In the PFG stage (3-4 days), the medium was changed to DMEM supplemented with Glutamax, antibiotics, 1% B27 (Invitrogen), 2 µM retinoic acid (RA, Sigma), FGF10 and KAAD-Cyclopamine. […]
At each stage, cultures were washed with PBS, fixed for 10-15 min at room temperature in 4% formaldehyde and rinsed several times. […] Immunocytochemistry was performed for the detection of Hnf1B using a donkey horse radish peroxidase (HRP)-conjugated secondary antibody and detected by the ABC complex (Dako) as previously described in Mfopou et al. 2007 (Stem Cells 25: 1156-1165). […]

The record followed here is patent publication EP2233566A1, “Generation of pancreatic progenitor cells” (Vrije Universiteit Brussel, priority 2009, dated 2010).

On to `Cc1c[nH]c(/C=C2\C(=O)Nc3ccccc32)c1CCC(=O)O` [SU5402], for which, for the setting “SU5402 (250 nM) alone”, the “albumin expression by the pancreas endoderm stage” value is given as “attenuates albumin expression”. The reduced hepatic differentiation result (SU5402 added in PGT and PFG stages (FGF signalling inhibition)) is “at least 50%”.
